Measurements from ChEMBL document CHEMBL1201862, “PubChem BioAssay data set” (2004).
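48-hour exposure; five concentrations; linearly interpolated endpoints. GI50 is the concentration that inhibits growth by half.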 Calls of active or inactive are those of the source. Cut-off read from the data, not from the text of the source: active = GI50 up to about 1.1 µM and inactive = higher.

How the values were obtained:
Experiment in all cases: NCI tumour cell line growth inhibition, 48 h
HOP-92 = tested on: HOP-92
HOP-18 = tested on: HOP-18
XF498 = tested on: XF498
NCI-H522 = tested on: NCI-H522
DLD-1 = tested on: DLD-1
KM-20L2 = tested on: KM-20L2
SN12C = tested on: SN12C
K562 = tested on: K562
NCI-H226 = tested on: NCI-H226
MOLT-4 = tested on: MOLT-4
Malme-3M = tested on: Malme-3M
LXFL 529 = tested on: LXFL 529
SK-OV-3 = tested on: SK-OV-3
M19-MEL = tested on: M19-MEL
A549 = tested on: A549
U-251 = tested on: U-251
A498 = tested on: A498

Measured: GI50

COc1ccc(-c2cc(O)c3cc(Cl)ccc3n2)cc1
inactive: HOP-92 > 100 µM | HOP-18 54.5 µM | XF498 > 100 µM | NCI-H522 > 100 µM | DLD-1 > 100 µM | KM-20L2 > 100 µM | SN12C > 100 µM | K562 > 100 µM | NCI-H226 > 100 µM | MOLT-4 > 100 µM | Malme-3M > 100 µM | LXFL 529 > 100 µM | SK-OV-3 > 100 µM | M19-MEL > 100 µM

CC(C)OP(=O)(OC(C)C)C1=NN(c2ccc([N+](=O)[O-])cc2)C(P(=O)(OC(C)C)OC(C)C)=NN1c1ccc([N+](=O)[O-])cc1
inactive: HOP-92 7.62 µM | HOP-18 > 100 µM | XF498 7.98 µM | NCI-H522 46 µM | A549 7.94 µM | DLD-1 5.32 µM | KM-20L2 > 100 µM | SN12C 44.7 µM | K562 6.95 µM | NCI-H226 > 100 µM | MOLT-4 5.19 µM | Malme-3M 72.1 µM | LXFL 529 22.9 µM | SK-OV-3 > 100 µM | U-251 42.7 µM | M19-MEL > 100 µM

O=C(CCc1nnc2s/c(=C\c3ccccc3Cl)c(=O)n12)Nc1cc(Cl)ccc1Cl
inactive: HOP-92 > 100 µM | HOP-18 > 100 µM | XF498 70.8 µM | NCI-H522 > 100 µM | A549 > 100 µM | DLD-1 > 100 µM | SN12C > 100 µM | K562 > 100 µM | NCI-H226 > 100 µM | MOLT-4 > 100 µM | Malme-3M > 100 µM | LXFL 529 > 100 µM | SK-OV-3 > 100 µM | U-251 > 100 µM | M19-MEL > 100 µM

CC1CC(c2ccc(Cl)c(Cl)c2)=Nc2ccccc2S1 (centres undefined)
inactive: HOP-92 > 100 µM | HOP-18 > 100 µM | XF498 > 100 µM | NCI-H522 > 100 µM | A549 > 100 µM | DLD-1 > 100 µM | A498 > 100 µM | KM-20L2 > 100 µM | SN12C > 100 µM | K562 > 100 µM | NCI-H226 > 100 µM | MOLT-4 > 100 µM | Malme-3M > 100 µM | LXFL 529 > 100 µM | SK-OV-3 > 100 µM | U-251 > 100 µM | M19-MEL > 100 µM

C[n+]1c2ccccc2c(NC(CCCNC(=N)N)C(=O)O)c2ccccc21 (centres undefined)
inactive: HOP-92 > 100 µM | HOP-18 > 100 µM | XF498 > 100 µM | NCI-H522 99.1 µM | A549 > 100 µM | DLD-1 > 100 µM | A498 > 100 µM | KM-20L2 > 100 µM | SN12C > 100 µM | K562 > 100 µM | NCI-H226 > 100 µM | MOLT-4 > 100 µM | Malme-3M > 100 µM | LXFL 529 > 100 µM | SK-OV-3 > 100 µM | U-251 > 100 µM | M19-MEL > 100 µM

COc1ccc2[nH]c3c(c2c1)[C@H]1CCC(C(C)(C)C)C[C@H]1[C@H]1C(=O)N(c2ccccc2)C(=O)[C@@H]31 (some centres undefined)
inactive: HOP-92 6.21 µM | HOP-18 25.6 µM | XF498 9.91 µM | NCI-H522 12.1 µM | A549 12.7 µM | DLD-1 13.5 µM | A498 14.7 µM | KM-20L2 > 51.4 µM | SN12C 11.9 µM | K562 20.6 µM | NCI-H226 27.6 µM | MOLT-4 20.9 µM | Malme-3M 15.8 µM | LXFL 529 69.3 µM | SK-OV-3 15.6 µM | U-251 6.14 µM | M19-MEL 26.1 µM

O=C1C(Cl)=C(Cl)C(=O)N1C1C2CC3CC(C2)CC1C3 (centres undefined)
inactive: HOP-92 > 100 µM | HOP-18 > 100 µM | XF498 > 100 µM | NCI-H522 27.9 µM | A549 > 100 µM | DLD-1 > 60.1 µM | A498 > 100 µM | KM-20L2 > 100 µM | SN12C > 100 µM | K562 28 µM | NCI-H226 > 100 µM | MOLT-4 21.4 µM | Malme-3M > 100 µM | LXFL 529 47.5 µM | SK-OV-3 > 100 µM | U-251 > 100 µM | M19-MEL > 100 µM

CC(C)(C)/N=C/N1C=Cc2nc3ccccc3cc2C1
inactive: HOP-92 > 100 µM | HOP-18 > 100 µM | XF498 > 100 µM | NCI-H522 > 100 µM | A549 > 100 µM | DLD-1 34.1 µM | A498 > 100 µM | KM-20L2 > 100 µM | SN12C > 100 µM | K562 > 100 µM | MOLT-4 > 100 µM | Malme-3M > 100 µM | LXFL 529 > 100 µM | SK-OV-3 > 100 µM | U-251 > 100 µM | M19-MEL > 100 µM
